#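 Briefly, cells in 96-well plates were exposed to five compound concentrations for 48 h, and endpoints were estimated by linear interpolation. GI50: concentration for 50% inhibition of growth. TGI: concentration producing complete growth inhibition.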
# Columns and labels:
# Assay in all cases: DTP human tumour cell line panel, 48 h
# TK-10 renal = tested on: TK-10 renal
# UO-31 renal = tested on: UO-31 renal
# SF-295 CNS = tested on: SF-295 CNS
# BT-549 breast = tested on: BT-549 breast
# A549 NSCLC = tested on: A549 NSCLC
# SK-MEL-2 melanoma = tested on: SK-MEL-2 melanoma
# CCRF-CEM leukemia = tested on: CCRF-CEM leukemia
# SNB-19 CNS = tested on: SNB-19 CNS
# OVCAR-4 ovarian = tested on: OVCAR-4 ovarian
# ACHN renal = tested on: ACHN renal
# DU-145 prostate = tested on: DU-145 prostate
# MCF7 breast = tested on: MCF7 breast
# LOX IMVI melanoma = tested on: LOX IMVI melanoma
# SK-MEL-28 melanoma = tested on: SK-MEL-28 melanoma
# UACC-257 melanoma = tested on: UACC-257 melanoma
# U251 CNS = tested on: U251 CNS
# SK-MEL-5 melanoma = tested on: SK-MEL-5 melanoma
# HOP-62 NSCLC = tested on: HOP-62 NSCLC
# SW-620 colon = tested on: SW-620 colon
# MOLT-4 leukemia = tested on: MOLT-4 leukemia
# 786-0 renal = tested on: 786-0 renal
# MDA-MB-435 = tested on: MDA-MB-435
# RPMI-8226 leukemia = tested on: RPMI-8226 leukemia
# SR leukemia = tested on: SR leukemia
# MDA-MB-231 breast = tested on: MDA-MB-231 breast
# M14 melanoma = tested on: M14 melanoma
# EKVX NSCLC = tested on: EKVX NSCLC
# NCI-H460 lung = tested on: NCI-H460 lung
# OVCAR-5 ovarian = tested on: OVCAR-5 ovarian
# SNB-75 CNS = tested on: SNB-75 CNS
# HCT-116 colon = tested on: HCT-116 colon
# HL-60(TB) leukemia = tested on: HL-60(TB) leukemia
# SK-OV-3 ovarian = tested on: SK-OV-3 ovarian
# UACC-62 melanoma = tested on: UACC-62 melanoma
# SF-268 CNS = tested on: SF-268 CNS
# HCC-2998 colon = tested on: HCC-2998 colon
# RXF 393 renal = tested on: RXF 393 renal
# IGROV1 ovarian = tested on: IGROV1 ovarian
# HCT-15 colon = tested on: HCT-15 colon
# T-47D breast = tested on: T-47D breast
# NCI-H226 lung = tested on: NCI-H226 lung
# OVCAR-3 ovarian = tested on: OVCAR-3 ovarian
# HOP-92 NSCLC = tested on: HOP-92 NSCLC
# COLO 205 colon = tested on: COLO 205 colon
# PC-3 prostate = tested on: PC-3 prostate
# MDA-MB-468 breast = tested on: MDA-MB-468 breast
# SN12C renal = tested on: SN12C renal
# HT29 colon = tested on: HT29 colon
# A498 renal = tested on: A498 renal
# KM12 colon = tested on: KM12 colon
# NCI-H522 lung = tested on: NCI-H522 lung
# HS 578T breast = tested on: HS 578T breast
# OVCAR-8 ovarian = tested on: OVCAR-8 ovarian
# SF-539 CNS = tested on: SF-539 CNS
# MALME-3M melanoma = tested on: MALME-3M melanoma
# K-562 leukemia = tested on: K-562 leukemia
# CAKI-1 renal = tested on: CAKI-1 renal
# NCI-H23 lung = tested on: NCI-H23 lung
smiles,measurement,setting,value
COc1ccc(NC2=C(I)C(=O)C(C)=C(C)C2=O)cc1,GI50,TK-10 renal,17 µM
same,TGI,TK-10 renal,37.2 µM
same,GI50,UO-31 renal,6.03 µM
same,TGI,UO-31 renal,19.8 µM
same,GI50,SF-295 CNS,13.9 µM
same,TGI,SF-295 CNS,28.4 µM
same,GI50,BT-549 breast,12.4 µM
same,TGI,BT-549 breast,25.8 µM
same,GI50,A549 NSCLC,16.9 µM
same,TGI,A549 NSCLC,39 µM
same,GI50,SK-MEL-2 melanoma,3.14 µM
same,TGI,SK-MEL-2 melanoma,12.4 µM
same,GI50,CCRF-CEM leukemia,1.36 µM
same,TGI,CCRF-CEM leukemia,35.4 µM
same,GI50,SNB-19 CNS,15.4 µM
same,TGI,SNB-19 CNS,34.1 µM
same,GI50,OVCAR-4 ovarian,3.98 µM
same,TGI,OVCAR-4 ovarian,15.2 µM
same,GI50,ACHN renal,4.61 µM
same,TGI,ACHN renal,17.5 µM
same,GI50,DU-145 prostate,16.1 µM
same,TGI,DU-145 prostate,30.7 µM
same,GI50,MCF7 breast,2.71 µM
same,TGI,MCF7 breast,10 µM
same,GI50,LOX IMVI melanoma,2.37 µM
same,TGI,LOX IMVI melanoma,8.8 µM
same,GI50,SK-MEL-28 melanoma,14.3 µM
same,TGI,SK-MEL-28 melanoma,28.9 µM
same,GI50,UACC-257 melanoma,2.42 µM
same,TGI,UACC-257 melanoma,8 µM
same,GI50,U251 CNS,11.5 µM
same,TGI,U251 CNS,24.7 µM
same,GI50,SK-MEL-5 melanoma,4.74 µM
same,TGI,SK-MEL-5 melanoma,18.2 µM
same,GI50,HOP-62 NSCLC,14.9 µM
same,TGI,HOP-62 NSCLC,36.6 µM
same,GI50,SW-620 colon,11.7 µM
same,TGI,SW-620 colon,29.2 µM
same,GI50,MOLT-4 leukemia,0.625 µM
same,TGI,MOLT-4 leukemia,32.6 µM
same,GI50,786-0 renal,8.56 µM
same,TGI,786-0 renal,27.4 µM
same,GI50,MDA-MB-435,1.82 µM
same,TGI,MDA-MB-435,3.37 µM
same,GI50,RPMI-8226 leukemia,3.08 µM
same,TGI,RPMI-8226 leukemia,20.2 µM
same,GI50,SR leukemia,1.07 µM
same,TGI,SR leukemia,> 100 µM
same,GI50,MDA-MB-231 breast,2.37 µM
same,TGI,MDA-MB-231 breast,8.48 µM
same,GI50,M14 melanoma,15 µM
same,TGI,M14 melanoma,28.7 µM
same,GI50,EKVX NSCLC,4.25 µM
same,TGI,EKVX NSCLC,16.7 µM
same,GI50,NCI-H460 lung,15.7 µM
same,TGI,NCI-H460 lung,32.8 µM
same,GI50,OVCAR-5 ovarian,11.7 µM
same,TGI,OVCAR-5 ovarian,25.6 µM
same,GI50,SNB-75 CNS,15.9 µM
same,TGI,SNB-75 CNS,35.6 µM
same,GI50,HCT-116 colon,2.93 µM
same,TGI,HCT-116 colon,10.4 µM
same,GI50,HL-60(TB) leukemia,0.341 µM
same,TGI,HL-60(TB) leukemia,1.54 µM
same,GI50,SK-OV-3 ovarian,18 µM
same,TGI,SK-OV-3 ovarian,62.9 µM
same,GI50,UACC-62 melanoma,9.68 µM
same,TGI,UACC-62 melanoma,23.8 µM
same,GI50,SF-268 CNS,12.3 µM
same,TGI,SF-268 CNS,55.6 µM
same,GI50,HCC-2998 colon,16.7 µM
same,TGI,HCC-2998 colon,33.5 µM
same,GI50,RXF 393 renal,3.6 µM
same,TGI,RXF 393 renal,14.8 µM
same,GI50,IGROV1 ovarian,4.37 µM
same,TGI,IGROV1 ovarian,17.3 µM
same,GI50,HCT-15 colon,13.5 µM
same,TGI,HCT-15 colon,27.9 µM
same,GI50,T-47D breast,1.98 µM
same,TGI,T-47D breast,16.3 µM
same,GI50,NCI-H226 lung,12.5 µM
same,TGI,NCI-H226 lung,28.9 µM
same,GI50,OVCAR-3 ovarian,2.75 µM
same,TGI,OVCAR-3 ovarian,9.45 µM
same,GI50,HOP-92 NSCLC,7.46 µM
same,TGI,HOP-92 NSCLC,26.2 µM
same,GI50,COLO 205 colon,14.8 µM
same,TGI,COLO 205 colon,28 µM
same,GI50,PC-3 prostate,3.42 µM
same,TGI,PC-3 prostate,> 100 µM
same,GI50,MDA-MB-468 breast,0.416 µM
same,TGI,MDA-MB-468 breast,2.49 µM
same,GI50,SN12C renal,4.04 µM
same,TGI,SN12C renal,15.5 µM
same,GI50,HT29 colon,18.2 µM
same,TGI,HT29 colon,48.8 µM
same,GI50,A498 renal,24.6 µM
same,TGI,A498 renal,68.3 µM
same,GI50,KM12 colon,6.96 µM
same,TGI,KM12 colon,42 µM
same,GI50,NCI-H522 lung,6.54 µM
same,TGI,NCI-H522 lung,21 µM
same,GI50,HS 578T breast,14.5 µM
same,TGI,HS 578T breast,50.2 µM
same,GI50,OVCAR-8 ovarian,2.26 µM
same,TGI,OVCAR-8 ovarian,6.54 µM
same,GI50,SF-539 CNS,2.5 µM
same,TGI,SF-539 CNS,7.23 µM
same,GI50,MALME-3M melanoma,11.6 µM
same,TGI,MALME-3M melanoma,23.9 µM
same,GI50,K-562 leukemia,2.99 µM
same,TGI,K-562 leukemia,> 100 µM
same,GI50,CAKI-1 renal,3.89 µM
same,TGI,CAKI-1 renal,22 µM
same,GI50,NCI-H23 lung,4.11 µM
same,TGI,NCI-H23 lung,17.6 µM
